Laboratory results: US8426434B2, “Crystalline form of 4-[[4-[[4-(2-Cyanoethenyl)-2,6-dimethylphenyl]-amino]-2-pyrimidinyl]amino]benzonitrile” (Tibotec Pharmaceuticals Ltd., priority 2007, dated 2013)
In brackets after ≈: the same amount, converted by molar mass. Several values for one entry are separate records, joined by “and”; a condition that tells them apart may be missing. Identical values can stand only once. Like-named read-outs stand apart in the source and are kept apart here.

Columns and labels:
[1] = tested on: drug and multidrug resistant HIV strains; conditions: in words; strains resistant to NNRTIs such as efavirenz, nevirapine, delavirdine; cited from earlier work
wild type HIV = conditions: in words; described in WO 03/16306; cited from earlier work
[2] = Solubility in buffer pH4, buffer pH2 and 0.01N HCl; assay type: physicochemical
[3] = Intrinsic dissolution (USP dissolution apparatus 2, tablet in PTFE holder, UV at 266 nm); assay type: physicochemical; conditions: for average intrinsic dissolution rate / slope, average: average of samples 1-6, 0.01N HCl/methanol 1:1, 37° C.; for average intrinsic dissolution rate / slope, average / slope / intrinsic dissolution rate (IDR): 150 rpm; for slope, average: 0 to 60 min; for slope / intrinsic dissolution rate (IDR): single samples, 500 ml 0.01N HCl/methanol 1:1, 37° C.; for slope: slope calculated from 0 to 60 min; for intrinsic dissolution rate (IDR): tablet surface 0.5026 cm^2
Procedure: A Hanson Research SR6™ dissolution testing station equipped with a USP dissolution apparatus 2 as paddle and a poly(tetrafluoroethylene (PTFE) tablet holder was used. UV spectrometry was used to determine the concentration of TMC278 in solution. The UV analysis was carried out on an Agilent 8453™ spectrophotometer using a 2 ml cuvet. A single wavelength measurement at 266 nm was recorded with single component analysis (SCA), a single component measurement.
About 125 mg of the compound was weighed into a mould with a diameter of 0.8 cm. A tablet was made with a Speca press imposing a pressure of 1 ton for tabletting. The surface area of the tablet was 0.5026 cm^2. The tablet was adhered to the PTFE tablet holder.
21.8 mg of TMC278 was weighed into a volumetric flask of 25 ml. The product was dissolved in a 1:1.5 tetrahydrofuran/methanol mixture. A 1 ml aliquot was transferred into a 200 ml volumetric flask and diluted to the mark using 0.01N HCl. The concentration of the reference solution was […].
The tablet holders with the tablets were placed in a USP2 dissolution bath. The vessels contained 500 ml 0.01N HCl/methanol 1:1 and were thermostatically controlled at 37° C. The paddles were used with a rotation speed of 150 rpm (rounds per minute). A sample was withdrawn each 10 minutes and the concentration was determined with UV spectrometry. The slope was calculated on the measuring points between 0 and 60 minutes. The slope was expressed as mg %/minute. The intrinsic dissolution rate (IDR), expressed as mg/(cm^2×min), was calculated.

| SMILES | activity against drug and multidrug resistant HIV strains [1] | activity against wild type HIV (wild type HIV) | solubility in water ([2]; water, in words) | average intrinsic dissolution rate [3] | slope, average [3] [mg %/minute] | average intrinsic dissolution rate ([3]; listed as polymorph II) | slope [3] | intrinsic dissolution rate (IDR) [3] | Solubility ([2]; 0.01N HCl, pH 2.1) [mg/100 ml] | Solubility ([2]; Buffer pH4, pH 4.0) [mg/100 ml] | intrinsic dissolution rates, compared to Polymorph II ([3]; in words) | Solubility ([2]; buffer pH2, pH 2.1, aqueous buffer, Buffer pH2, pH 2.1, read-out: Solubility) [µg/mL] | solubility at lower pH, compared to Polymorph II ([2]; lower pH, in words) |
| --- | --- | --- | --- | --- | --- | --- | --- | --- | --- | --- | --- | --- | --- |
| Cc1cc(/C=C/C#N)cc(C)c1Nc1ccnc(Nc2ccc(C#N)cc2)n1 [TMC278, 4-[[4-[[4-(2-cyanoethenyl)-2,6-dimethylphenyl]-amino]-2-pyrimidinyl]-amino-]-benzonitrile] | shows activity | pronounced activity | relatively low solubility in water |  |  |  |  |  |  |  |  |  |  |
| Cc1cc(/C=C/C#N)cc(C)c1Nc1ccnc(Nc2ccc(C#N)cc2)n1 [TMC278 polymorph II, 4-[[4-[[4-(2-cyanoethenyl)-2,6-dimethylphenyl]-amino]-2-pyrimidinyl]-amino-]-benzonitrile, reference compound] |  |  |  | 0.2886 mg/(cm^2 × min) | 0.0290 | 0.2886 mg/(cm^2 × min) | 0.0283 mg %/minute and 0.0281 mg %/minute and 0.0290 mg %/minute and 0.0305 mg %/minute and 0.0288 mg %/minute and 0.0294 mg %/minute | 0.2819 mg/(cm^2 × min) and 0.2795 mg/(cm^2 × min) and 0.2886 mg/(cm^2 × min) and 0.3035 mg/(cm^2 × min) and 0.2861 mg/(cm^2 × min) and 0.2921 mg/(cm^2 × min) | 1.9 | 0.03 |  |  |  |
| Cc1cc(/C=C/C#N)cc(C)c1Nc1ccnc(Nc2ccc(C#N)cc2)n1 [TMC278 polymorph I, (E) 4-[[4-[[4-(2-cyanoethenyl)-2,6-dimethylphenyl]amino]-2-pyrimidinyl]amino]benzonitrile] |  |  |  | 0.3362 mg/(cm^2 × min) | 0.0338 |  | 0.0358 mg %/minute and 0.0353 mg %/minute and 0.0309 mg %/minute and 0.0347 mg %/minute and 0.0343 mg %/minute and 0.0319 mg %/minute | 0.3559 mg/(cm^2 × min) and 0.3508 mg/(cm^2 × min) and 0.3074 mg/(cm^2 × min) and 0.3447 mg/(cm^2 × min) and 0.3417 mg/(cm^2 × min) and 0.3169 mg/(cm^2 × min) | 4.1 | 0.07 | increased intrinsic dissolution rates | 6.4 (≈ 17.5 µM) | increased solubility at lower pH |
